Patent US20060074101A1, “Method of treating post operative nausea and vomiting” (Helsinn Healthcare SA, priority 2003, published 2006)

Legend:
[1] = tested on: postoperative vomiting and nausea (PONV); test: Prevention of PONV using a single intravenous dose of palonosetron (hysterectomy patients); format: in vivo, human; conditions: for patients who had received rescue therapy: by 24 hours; for Time to Failure (hr) (median): emesis or rescue medication, whichever first; for patients who experienced one or more emetic episodes: at 12 hours; for patients who had experienced an emetic episode: at 24 hours; for patients who experienced an emetic episode: two hours postrecovery; for Nausea Mean Score / No Nausea (patients) / Severe Nausea (patients): during 24 hours after recovery
Description: A study was conducted to test the efficacy and safety of five doses of intravenously administered palonosetron for the prophylaxis of postoperative vomiting and nausea. A total of 381 women, 24-80 years of age, scheduled for abdominal or vaginal hysterectomy and having ASA physical status rating of I or II were enrolled in this study. All patients received balanced general anesthesia, including N2O plus an opiate. Study medication, palonosetron, was administered over 30 seconds through a peripheral IV line at skin closure at the conclusion of the surgical procedure.

[2] = tested on: postoperative vomiting and nausea (PONV); test: Oral administration of palonosetron for prophylaxis of PONV (elective laparoscopic surgery patients); format: in vivo, human; conditions: for % no EE / % with CR: 4 hours after recovery; for % no EE / % with CR / % no EE (no emetic episodes) / % with CC (complete control) / % with CR (complete response): evaluable patients; for % no EE (no emetic episodes) / % with CC (complete control) / % with CR (complete response): 24 hours after recovery; for Nausea Mean Score / No Nausea (patients) / Severe Nausea (patients): during 24 hours after recovery; for patients free from emetic episodes: first 4 hours of recovery
Description: A study was performed to test the efficacy, safety, and pharmacokinetics of five doses of orally administered palonosetron for the prophylaxis of postoperative vomiting and nausea. Three hundred fifty-one patients, 308 women and 43 men, 19-75 years of age, scheduled for elective laparoscopic surgical procedures and having an ASA physical status rating of I and II were enrolled in this study. All patients received balanced general anesthesia, including […] plus an opiate. Doses of palonosetron were calculated based on thee patient's body weight at the screening visit, rounded to the nearest kilogram. Each dose was diluted to a total volume of 25 mL by adding sterile water to the dosing cup. The dosing cup was rinsed with 25 mL of sterile water and the patient also swallowed this 25 mL. Study medication was administered 2 hours prior to scheduled induction of anesthesia for surgeries requiring nasogastric suction and 1 hour prior to scheduled induction of anesthesia for all other laparoscopic surgical procedures.

[3] = Stability of palonosetron in solution; format: physicochemical; conditions: dependence on concentration
[4] = 0.1 μg/kg IV, 24 hours after recovery, evaluable patients
[5] = 0.3 μg/kg IV, 4 hours after recovery
[6] = 0.3 μg/kg IV, 24 hours after recovery, evaluable patients
[7] = 1 μg/kg IV, 4 hours after recovery
[8] = 1.0 μg/kg IV, 24 hours after recovery, evaluable patients
[9] = 3.0 μg/kg IV, 24 hours after recovery, evaluable patients
[10] = 30 μg/kg IV, 4 hours after recovery
[11] = 30 μg/kg IV, 24 hours after recovery, evaluable patients

Cl.O=C1c2cccc3c2[C@H](CCC3)CN1[C@@H]1CN2CCC1CC2 [palonosetron, (3aS)-2,3,3a,4,5,6-Hexahydro-2-[(S)-1-Azabicyclo[2.2.2]oct-3-yl]2,3,3a,4,5,6-hexahydro-1-oxo-1Hbenz[de]isoquinoline]
Duration of Effect: Emetic Episode (25th Percentile) ([1]; 0.1 μg/kg IV): 2.2 h
Duration of Effect: Emetic Episode, second line of values (percentile not given) ([1]; 0.1 μg/kg IV): >24 h
Duration of Effect: Rescue (50th percentile) ([1]; 0.1 μg/kg IV): 8.5 h
% with CR ([1]; 0.1 μg/kg IV, 4 hours after recovery): 57%
% no EE [1, 4]: 55%
% with CC (complete control) [1, 4]: 34%
% with CR (complete response) [1, 4]: 34%
patients who had received rescue therapy ([1]; 0.1 μg/kg IV): 59.6%
Time to Failure (hr) (median) ([1]; 0.1 μg/kg IV): 6.0 h
Duration of Effect: Emetic Episode (25th Percentile) ([1]; 0.3 μg/kg IV): 8.4 h
Duration of Effect: Emetic Episode, second line of values (percentile not given) ([1]; 0.3 μg/kg IV): >24 h
Duration of Effect: Rescue (50th percentile) ([1]; 0.3 μg/kg IV): 9.9 h
% no EE [1, 5]: 90%
% with CR [1, 5]: 72%
% no EE [1, 6]: 60%
% with CC (complete control) [1, 6]: 33%
% with CR (complete response) [1, 6]: 34%
patients who experienced one or more emetic episodes ([1]; 0.3 μg/kg IV): 29.9%
patients who had experienced an emetic episode ([1]; 0.3 μg/kg IV): 40.3%
patients who had received rescue therapy ([1]; 0.3 μg/kg IV): 59.7%
Time to Failure (hr) (median) ([1]; 0.3 μg/kg IV): 9.6 h
patients who experienced an emetic episode ([1]; 0.3 μg/kg IV): 10.4%
Duration of Effect: Emetic Episode (25th Percentile) ([1]; 1 μg/kg IV): 21.8 h
Duration of Effect: Emetic Episode, second line of values (percentile not given) ([1]; 1 μg/kg IV): >24 h
Duration of Effect: Rescue (50th percentile) ([1]; 1 μg/kg IV): 21.3 h
% no EE [1, 7]: 92%
% with CR [1, 7]: 69%
% no EE [1, 8]: 73%
% with CC (complete control) [1, 8]: 44%
% with CR (complete response) [1, 8]: 44%
patients who experienced one or more emetic episodes ([1]; 1 μg/kg IV): 14.5%
patients who had experienced an emetic episode ([1]; 1 μg/kg IV): 27.4%
patients who had received rescue therapy ([1]; 1 μg/kg IV): 51.6%
Nausea Mean Score ([1]; 1 μg/kg IV): 0.82
No Nausea (patients) ([1]; 1 μg/kg IV): 36.1%
Severe Nausea (patients) ([1]; 1 μg/kg IV): 3.3%
Time to Failure (hr) (median) ([1]; 1.0 μg/kg IV): 19.5 h
patients who experienced an emetic episode ([1]; 1 μg/kg IV): 6.5%
nausea reported versus placebo ([1]; 1 μg/kg, 3 μg/kg, and 30 μg/kg IV, 24-hour period following recovery): statistically significantly less nausea
Duration of Effect: Emetic Episode (25th Percentile) ([1]; 3 μg/kg IV): 4.9 h
Duration of Effect: Emetic Episode, second line of values (percentile not given) ([1]; 3 μg/kg IV): >24 h
Duration of Effect: Rescue (50th percentile) ([1]; 3 μg/kg IV): 8.0 h
% with CR ([1]; 3 μg/kg IV, 4 hours after recovery): 66%
% no EE [1, 9]: 61%
% with CC (complete control) [1, 9]: 30%
% with CR (complete response) [1, 9]: 30%
Nausea Mean Score ([1]; 3 μg/kg IV): 0.92
No Nausea (patients) ([1]; 3 μg/kg IV): 34.8%
Severe Nausea (patients) ([1]; 3 μg/kg IV): 3.0%
Time to Failure (hr) (median) ([1]; 3.0 μg/kg IV): 7.3 h
Duration of Effect: Emetic Episode (25th Percentile) ([1]; 30 μg/kg IV): >24 h
Duration of Effect: Emetic Episode, second line of values (percentile not given) ([1]; 30 μg/kg IV): >24 h
Duration of Effect: Rescue (50th percentile) ([1]; 30 μg/kg IV): 23.2 h
% no EE [1, 10]: 94%
% with CR [1, 10]: 66%
% no EE [1, 11]: 76%
% with CC (complete control) [1, 11]: 45%
% with CR (complete response) [1, 11]: 45%
patients who experienced one or more emetic episodes ([1]; 30 μg/kg IV): 13.4%
patients who had experienced an emetic episode ([1]; 30 μg/kg IV): 23.9%
patients who had received rescue therapy ([1]; 30 μg/kg IV): 50.7%
Nausea Mean Score ([1]; 30 μg/kg IV): 0.66
No Nausea (patients) ([1]; 30 μg/kg IV): 47.8%
Time to Failure (hr) (median) ([1]; 30 μg/kg IV): 15.0 h
patients who experienced an emetic episode ([1]; 30 μg/kg IV): 4.5%
patients free from emetic episodes ([1]; 0.3-, 1-, and 30-μg/kg IV groups (range), first 4 hours of recovery): 90-94%
dose at which the clinical response substantially plateaus ([1]; administered intravenously or orally): about 1 microgram/kilogram of body weight
patients who received rescue medication ([1]; palonosetron-treated patients IV (range over dose groups), at 8 hours): 35.5-50.7%
patients who received rescue therapy ([1]; palonosetron-treated patients IV (range over dose groups), within the first 2 hours): 21-31%
% no EE ([2]; 0.1 μg/kg oral): 73%
% with CR ([2]; 0.1 μg/kg oral): 60%
nausea, position of treatment group relative to other groups ([2]; 0.3 μg/kg oral, 24-hour period following recovery): intermediate to the placebo group and the other palonosetron treatment groups
% no EE ([2]; 0.3 μg/kg oral): 72%
% with CR ([2]; 0.3 μg/kg oral): 61%
% no EE (no emetic episodes) ([2]; 0.3 μg/kg oral): 50%
% with CC (complete control) ([2]; 0.3 μg/kg oral): 37%
% with CR (complete response) ([2]; 0.3 μg/kg oral): 37%
Nausea Mean Score ([2]; 0.3 μg/kg oral): 0.83
No Nausea (patients) ([2]; 0.3 μg/kg oral): 44.8%
Severe Nausea (patients) ([2]; 0.3 μg/kg oral): 3.4%
% no EE ([2]; 1 μg/kg oral): 81%
% with CR ([2]; 1 μg/kg oral): 70%
% no EE (no emetic episodes) ([2]; 1 μg/kg oral): 67%
% with CC (complete control) ([2]; 1 μg/kg oral): 58%
% with CR (complete response) ([2]; 1 μg/kg oral): 58%
Nausea Mean Score ([2]; 1 μg/kg oral): 0.64
No Nausea (patients) ([2]; 1 μg/kg oral): 52.8%
Severe Nausea (patients) ([2]; 1 μg/kg oral): 3.8%
patients free from emetic episodes ([2]; 1.0 μg/kg oral): 72%
% no EE ([2]; 3 μg/kg oral): 82%
% with CR ([2]; 3 μg/kg oral): 76%
% no EE (no emetic episodes) ([2]; 3 μg/kg oral): 63%
% with CC (complete control) ([2]; 3 μg/kg oral): 52%
% with CR (complete response) ([2]; 3 μg/kg oral): 52%
Nausea Mean Score ([2]; 3 μg/kg oral): 0.65
No Nausea (patients) ([2]; 3 μg/kg oral): 55.8%
Severe Nausea (patients) ([2]; 3 μg/kg oral): 7.7%
patients free from emetic episodes ([2]; 3 μg/kg oral): 81%
% no EE (no emetic episodes) ([2]; 10 μg/kg oral): 71%
% with CC (complete control) ([2]; 10 μg/kg oral): 57%
% with CR (complete response) ([2]; 10 μg/kg oral): 59%
Nausea Mean Score ([2]; 10 μg/kg oral): 0.71
No Nausea (patients) ([2]; 10 μg/kg oral): 51.1%
Severe Nausea (patients) ([2]; 10 μg/kg oral): 2.2%
patients free from emetic episodes ([2]; 10 μg/kg oral): 82%
% no EE ([2]; 30 μg/kg oral): 69%
% with CR ([2]; 30 μg/kg oral): 63%
% no EE (no emetic episodes) ([2]; 30 μg/kg oral): 65%
% with CC (complete control) ([2]; 30 μg/kg oral): 51%
% with CR (complete response) ([2]; 30 μg/kg oral): 53%
Nausea Mean Score ([2]; 30 μg/kg oral): 0.79
No Nausea (patients) ([2]; 30 μg/kg oral): 44.8%
Severe Nausea (patients) ([2]; 30 μg/kg oral): 5.2%
nausea reported versus placebo ([2]; 1, 3, 10, and 30 μg/kg oral, 24-hour period following recovery): statistically significantly less nausea
dose at which clinical response reached a plateau ([2]; orally administered): 1 µg/kg
stability in solution [3]: stability of palonosetron increases in solution as its concentration decreases
